Read-outs that look alike come from different tables or passages of the source.

Data set [1] in a line: Intrinsic clearance in human cryopreserved hepatocytes. In kind it is in vitro ADME. Conditions: 0.3 μM substrate, 37° C. As for the experimental part: (§1) In Vitro Determination of Intrinsic Clearance in Mice and Human Hepatocytes
(§2) Cryopreserved hepatocytes are used to determine the in vitro metabolic clearance of pharmaceutical candidates. The following assay was conducted to compare the compound of Example 1 to its undeuterated analog, referred to hereinafter as Compound A:
(§3) Compound incubations (0.3 μM substrate concentrations) were then performed in a 96-well plate format at 37° C. with 200,000 cells/well, shaking at approximately 600 rpm. Incubations were initiated by direct addition of 2 μL of the substrate compounds. At 0, 15, 30, 60, and 90 minutes, 20 μL of incubation samples were quenched with 80 μL acetonitrile containing internal standard. Quenched plates were foil sealed, centrifuged for 30 minutes at 4000 rpm and analyzed for substrate by liquid chromatography with tandem mass spectrometry (LC-MS/MS).
(§4) Intrinsic clearance is a measure of the maximum potential liver metabolism of a compound when not restricted by blood flow or protein binding This intrinsic clearance was determined from the elimination rate constants (kdep; min^−1) measured from the disappearance of substrate in the incubations over time, using the following equation: […]

Data set [2] is described as follows: Intrinsic clearance in mouse cryopreserved hepatocytes. Conditions: 0.3 μM substrate, 37° C. In kind it is in vitro ADME. On the procedure:
as §1, §2, §3, §4

Data set [3] in a line: Determination of pharmacokinetics in mice. In kind it is in vivo, mouse. Conditions: male CD-1 mice; for CLIV / Vd: IV 1 mg/kg; for Vd / bioavailability: mouse, whole blood (dried blood spot); for Vd: read-out: Vd, ss; for bioavailability: PO 10 mg/kg vs IV 1 mg/kg. On the procedure: Determination of Pharmacokinetics in Mice
Subjects: The subjects for these studies were male CD-1 mice from either Envigo, (Indianapolis, IN, USA) or Charles River Laboratories, Inc (Raleigh, NC, USA) between 4-12 weeks old at time of test. Each dosing group has three animals, and food and water is available ad libitum.
Dosing and Sample Collection: The test compound was administered intravenously (IV) via tail vein at 1 mg/kg (using vehicle: 25% (v/v) Dimethylacetamide (DMA), 15% (v/v) Ethanol (EtOH), 10% (v/v) Propylene Glycol (PG), 25% 2-Pyrrolidone (2-P), and 25% purified water) and orally (PO) via gavage needle at 10 mg/kg (using a vehicle of 1% (w/v) Hydroxyethylcellulose, 0.25% (w/v) Polysorbate 80, 0.05% (v/v) Antifoam1510-US in purified water quantum satis. Blood for dried blood spot (DBS) collection (approximately 20 μL) was collected from each available animal via a saphenous vein utilizing K2EDTA capillary tubes and stored at ambient temperature until analysis. Serial blood samples are collected at 0.08, 0.25, 0.5, 1, 2, 4, 8, 12, 24, and 48 h post dose for IV bolus and at 0.25, 0.5, 1, 2, 4, 8, 12, 24, and 48 h post dose after oral administration.
Sample Analysis: DBS cards (3 mm punches) of samples or standards were each mixed with a 180 uL solution of methanol: acetonitrile (1/1, v/v) containing internal standard to extract analyte followed by a two-fold dilution with water. A 10 uL aliquot of sample or standard is analyzed using an LC-MS/MS method. For Compound A, the lower limit of quantification (LLQ) was 5 ng/ml and the upper limit of quantification (ULQ) was 2500 ng/mL. For the compound of Example 1, the LLQ was 10 ng/ml and ULQ was 10,000 ng/mL
Calculation of pharmacokinetic parameters: Test article concentration data was uploaded into the Thermo Scientific™ Watson LIMS™ system where noncompartmental analysis was used to calculate Area Under the Curve (AUC) for both IV and PO arms, and Mean Residence Time (MRT) from the IV arm. • Bioavailability (% F) was calculated as follows,
[formula] • IV Clearance (CLIV) was calculated as follows,
[formula] • Volume of distribution at steady state (Vd,ss) was calculated as follows, […]

The next data set concerns the target T1, human MrgX1 receptor (Homo sapiens, UniProt Q96LB2).
T1 construct: expressed in transfected cells
The data set is described as follows: IP1 cellular assay for EC50 determination against hMrgX1 by HTRF. In kind it is cell-based. Conditions: for EC50: HEK293 cells expressing human MrgX1, in presence of EC15 of BAM8-22, geometric mean (SEM, n), read-out: Relative EC50 (SEM, n); for Max (Mean ± SEM): maximum stimulation relative to saturating BAM8-22. As for the experimental part:
IP1 Cellular Assay for EC50 Determination Against hMrgX1 by HTRF
Cell plating: HEK293 cells stably expressing the recombinant human MrgX1 receptor were expanded in culture flasks (Corning, T150), using growth media containing DMEM with glutamine (GIBCO™ Cat. #11960-044) supplemented with 10% heat-inactivated FBS (HyClone™, Cat. #CH30073), 1% penicillin/streptomycin (HyClone™, Cat. #SV30010; 10,000 U/mL penicillin; 10,000 μg/mL streptomycin in 0.85% NaCl), 20 mM HEPES (GIBCO™, Cat. #15630122) and 0.3 mg/mL G418 (GIBCO™ Cat. #11811031). When cell monolayers achieved a level of 80-90% confluence, monolayers were washed once with 10 mL of DPBS (HyClone™, Cat. #14190-144), dissociated using TrypLE™ Express enzyme cell dissociation media (GIBCO™ Cat. #12605-010), and were diluted by addition of 10 mL DPBS. Dissociated cells were transferred to a sterile 50 mL conical tube, pelleted by centrifugation at 300×g to remove the growth and dissociation media, and diluted to 1M cells/mL into DMEM for plating.
IP1 Potency and Efficacy Determination: Test compounds were dissolved in DMSO to a concentration of 10 mM and serially diluted in DMSO to obtain a 10-point concentration response stock dilution plate. Growth media was removed from the cell plate, and the stock 10-point dilution plate was diluted into media and stamped into the cell plate at a concentration 2× higher than the final test concentration of […] maximum. The endogenous agonist BAM8-22 (Tocris-BioScience Cat. #1763) was diluted to the EC15, determined independently at a minimum of n=3, into the cell plate and incubated at room temperature for 120 min. Subsequently, half the volume each of anti-IP1 cryptate and d2-labeled IP1 in lysis buffer, supplied with the IP-One Gq Kit (CisBio Cat. #62IPAPEC) was added to the cell plate to initiate cell lysis, and incubated for 60 min at room temperature in the dark. Fluorescence was then determined at 620 and 665 nm (˜100 us following laser excitation).
Data Analysis: Fluorescent ratios were determined as the ratio of the fluorescence emission at 665 nm over 620 nm and converted to IP1 concentration, using the IP1 standard curve generated in a separate plate, following the manufacturer's instructions. The IP1 concentration was then plotted as a function of compound concentration. […]
A general note: Time-resolved FRET reads energy transfer from a long-lived donor to a nearby acceptor.

The nature of data set [4]: In vivo determination of Kp,uu,brain in mice. Conditions: male, CD1 (ICR), mouse, 100 mg/kg oral. The text has this: In Vivo Determination of Kp,uu,Brain in Mice
Unbound brain-to-plasma partition coefficient (Kp,uu,brain) is one of the key pharmacokinetic parameters for evaluating a compound's ability to cross the blood-brain barrier (BBB). It is typically measured in pre-clinical species using the following methodology. Kp,uu,brain values indicate the fraction of free drug in plasma that partitions across the BBB.
Subjects: The subjects for these studies were 12 male CD1 (ICR) mice (Envigo, Indianapolis, IN, USA) between 5-7 weeks old at time of test. Mice were housed in groups of 4 in high density plastic home cages. Food and water were available ad libitum. The rooms were maintained at 73° F. with 30-70% relative humidity and kept on a light/dark cycle of 0600-1800 h.
Agent: The compound of Example 1 was prepared at 10 mg/ml in the 1% HEC, 0.25% TWEEN®80, 0.05% DOWSIL™ vehicle in water. Prepared compound was sonicated in water bath for 30 min until a suspension was formed. Mice were dosed orally at 10 ml/kg for a 100 mg/kg dose.
Dosing and Tissue Collection: For this experiment, ten mice received oral dosing of 100 mg/kg of the compound of Example 1. Mice were then euthanized at 2 h post-dosing via CO2 asphyxiation, plasma samples were collected via cardia puncture, and mouse brains removed, weighed, and frozen on dry ice. Blood samples were stored in EDTA tubes on wet ice and centrifuged at 15 k rpm for 10 min. Plasma was collected, plated in a 96-well plate, and frozen at −80° C.
Pharmacokinetic sampling: Plasma and brain samples obtained were analyzed for Example 1 using an LC-MS/MS method (Q2 Solutions, Indianapolis, IN, USA). Plasma samples were extracted using protein precipitation. The lower limit of quantification was 25 ng/mL, and the upper limit of quantification was 5000 ng/mL. Brain samples were homogenized, and the analyte was extracted using protein precipitation. The lower limit of quantification was 4 ng/g and the upper limit of quantification was 200000 ng/g.
Analysis and Results: Kp,uu,brain was calculated for each time point from the expression below where individual components are derived from a combination of in vitro and in vivo measurements carried out as described above:
where Ctotal,brain, Cu,brain, Ctotal,plasma, and Cu,plasma are total and unbound brain and plasma concentrations, and fu,brain and fu,plasma are fractions unbound in brain and plasma, respectively.

Data set [5] is described as follows: Plasma and brain homogenate protein binding by equilibrium dialysis. Format: in vitro ADME, mouse. On the procedure:
Determination of plasma and brain protein binding: Mouse plasma and brain homogenate protein binding was determined in vitro using equilibrium dialysis, as described elsewhere [Zamek-Gliszczynski et al., J Pharm Sci, 101:1932-1940, 2012]. The results are reported as fraction unbound in plasma (fu,plasma) and brain (fu,brain) which are then utilized to calculate Kp,uu,brain as described below. Mouse fu,plasma and fu,brain of Example 1 was determined to be 0.0667 and 0.011, respectively.
(In general: In equilibrium dialysis only unbound substance equilibrates across the membrane.)

T1 sequence (Q96LB2 whole entry): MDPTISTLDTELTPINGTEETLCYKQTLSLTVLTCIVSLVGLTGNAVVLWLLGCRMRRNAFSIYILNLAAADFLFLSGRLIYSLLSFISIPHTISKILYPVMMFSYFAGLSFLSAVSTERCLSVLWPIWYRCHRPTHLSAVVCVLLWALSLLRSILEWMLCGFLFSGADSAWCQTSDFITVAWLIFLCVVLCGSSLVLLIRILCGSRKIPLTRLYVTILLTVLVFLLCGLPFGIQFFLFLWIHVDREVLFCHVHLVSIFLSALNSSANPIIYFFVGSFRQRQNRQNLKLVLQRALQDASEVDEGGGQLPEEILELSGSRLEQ

A word on the hepatocyte CLint: it is the capacity of the preparation to metabolise the compound, expressed as a volume cleared per time. For orientation: Vd means the apparent volume that relates the amount in the body to the concentration in plasma or blood. In general, bioavailability refers to the share of a dose that reaches the circulation, judged against a reference dose that is usually intravenous. In turn, `Cc1c(Oc2c(F)cc(C#N)cc2F)nc(N)nc1C(F)(F)F` [Compound A, reference compound] displayed a hepatocyte CLint at 0.3 μM in data set [1] of 2.62 µL/min/1e6 cells. In data set [2], this molecule registered an intrinsic clearance (hepatocyte CLint) at 0.3 μM below 1.8 µL/min/1e6 cells. Also, in data set [3], the CLIV was found to be 16.1 ± 1.7 mL/min/kg, the Vd was determined as 6.6 ± 0.1 L/kg and the bioavailability was determined as 34 ± 3.7%.

What is called EC50 is the concentration giving half of the maximal effect. A word on the fraction unbound: it is the share of the substance not bound to proteins or other matrix. Regarding `[2H]C([2H])([2H])c1c(Oc2c(F)cc(C#N)cc2F)nc(N)nc1C(F)(F)F` [Example 1, 4-[2-amino-5-(trideuteriomethyl)-6-(trifluoromethyl)pyrimidin-4-yl]oxy-3,5-difluoro-benzonitrile], the hepatocyte CLint at 0.3 μM was 6.47 µL/min/1e6 cells in data set [1] and below 1.8 µL/min/1e6 cells in data set [2]. The EC50 on human MrgX1 receptor was 22 nM. For the same molecule, the “Max (Mean ± SEM)” value on human MrgX1 receptor is on record as 111 ± 14.9, n = 4%. The CLIV in data set [3] turned out to be 7.7 ± 1.3 mL/min/kg. In data set [3], the Vd came out at 9.5 ± 3.1 L/kg. Moreover, the bioavailability in data set [3] amounted to 60 ± 2.6%. The concentration at 2 h was found to be 0.706 ± 0.25 µM in data set [4] (brain (unbound), 2 h, using mouse fu,brain 0.011, read-out: Unbound brain conc. (Cu, brain) ± SD); 64.1 ± 22.7 µM in data set [4] (brain, 2 h post dose, read-out: Total brain conc. (Ctotal, brain) ± SD); 1.25 ± 0.418 µM in data set [4] (plasma (unbound), 2 h, using mouse fu,plasma 0.0667, read-out: Unbound plasma conc. (Cu, plasma) ± SD); 18.8 ± 6.26 µM in data set [4] (plasma, 2 h post dose, read-out: Total plasma conc. (Ctotal, plasma) ± SD). Besides, the Kp uu at 2 h in data set [4] (2 h, unbound brain-to-plasma partition coefficient) was determined as 0.586. Besides, the fraction unbound in data set [5] (mouse brain homogenate, read-out: fraction unbound in brain (fu,brain)) worked out at 0.011; in data set [5] (mouse plasma, read-out: fraction unbound in plasma (fu,plasma)), 0.0667.

`[2H]C([2H])([2H])c1c(Oc2c(F)cccc2F)nc(N)nc1C(F)(F)F` [Example 2, 4-(2,6-difluorophenoxy)-5-(trideuteriomethyl)-6-(trifluoromethyl)pyrimidin-2-amine]: at human MrgX1 receptor, the EC50 was 28 nM and the “Max (Mean ± SEM)” value was 106 ± 8.16, n = 4%.

The values above are taken from US20250002461A1, “DEUTERATED (TRIFLUOROMETHYL)PYRIMIDINE-2-AMINE COMPOUNDS AS POTENTIATORS OF THE HMRGX1 RECEPTOR” (Eli Lilly and Company, priority 2021, published 2025).
